target: T1, Lanosterol 14-alpha demethylase (Mycobacterium tuberculosis (strain CDC 1551 / Oshkosh), UniProt P9WPP8); assay: Ligand Binding Assay; settings: pH 7.5; 37 °C
T1 sequence (P9WPP8 whole entry): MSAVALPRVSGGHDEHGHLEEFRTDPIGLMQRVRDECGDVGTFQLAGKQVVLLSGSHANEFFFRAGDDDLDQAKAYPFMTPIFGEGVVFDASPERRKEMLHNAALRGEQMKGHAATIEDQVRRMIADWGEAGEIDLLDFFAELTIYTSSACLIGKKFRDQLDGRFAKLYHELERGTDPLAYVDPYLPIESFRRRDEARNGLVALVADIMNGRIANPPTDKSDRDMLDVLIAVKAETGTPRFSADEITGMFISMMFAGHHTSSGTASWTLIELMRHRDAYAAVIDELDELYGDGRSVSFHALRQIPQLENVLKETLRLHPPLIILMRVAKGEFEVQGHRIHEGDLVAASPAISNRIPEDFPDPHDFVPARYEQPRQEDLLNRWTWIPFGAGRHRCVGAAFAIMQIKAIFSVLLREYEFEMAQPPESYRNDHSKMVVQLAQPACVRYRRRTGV
Excerpt: The assay was developed based on the optical spectral property of P450 enzyme to elicit both type I and type II spectral changes (350 nm through 450 nm). The concentration dependence of the changes allows the binding affinities of the ligands to be estimated. Titration data were linearized by plotting S0/deltaA against S0, where S0 is the total concentration of a ligand and deltaA is the change in absorption. The equilibrium dissociation constant (Kd) was extrapolated from the intercept of the linear plot with the S0 axis.

| Compound | Kd [µM] |
| --- | --- |
| c1ccc(-c2c[nH]cn2)cc1 | 1300 |
| NCC(=O)N1c2ccccc2SC2C=CC=CC21 (stereo not drawn) [1-(10,10a-dihydro-4aH-phenothiazin-10-yl)-2-aminoethan-1-one] | 7.5 |
| O=C1c2cc(O)ccc2-c2ccc(O)cc21 [2,7-Dihydroxy-9-fluorenone] | 37.5 |
| CCC1(C)CC(CCN)(c2ccc(OC)cc2)CCO1 (stereo not drawn) [2-[2-ethyl-4-(4-methoxyphenyl)-2-methyloxan-4-yl]ethan-1-amine] | 7.5 |
| COc1ccccc1C(CCN)c1ccco1 (stereo not drawn) [3-furan-2-yl-3-(2-methoxyphenyl)propan-1-amine] | 7.5 |
| O=C(Nc1ccncc1)C1(c2ccccc2)CCOCC1 [4-phenyl-N-pyridin-4-yltetrahydro-2H-pyran-4-carboxamide] | 7.5 |
| C[C@]12CCC3c4ccc(O)cc4CCC3C1C[C@@H](O)[C@@H]2O (stereo partly drawn) [Epiestriol] | 100 |
| Nc1ccc(NS(=O)(=O)c2ccc(Cl)cc2)cc1 [N-(4-aminophenyl)-4-chlorobenzene-1-sulfonamide] | 7.5 |

Reference: BindingDB's records for doi:10.1128/AAC.00311-07 (University of California San Francisco, 2007)
